≈ marks a conversion by molar mass, not a printed value. Like-named read-outs stand apart in the source and are kept apart here. Where only a bound is given, the exact number is not on record here.

By MIC is commonly meant the lowest concentration that inhibits growth of the organism.

One test has as its system resistant bacteria. The conditions noted are these: in words, background art; cited from earlier work.
Another test concerns Providencia Pv 37. Put plainly: MIC, standard serial dilution on nutrient agar. It is filed as cell-based. Particulars: PV37, 37° C., 18 hours.
Another test deals with Sarcina lutea PCI 1001. The test can be described thus: MIC, standard serial dilution on nutrient agar. It is filed as cell-based. Particulars: Micrococcus luteus, PCI1001, 18 h.
For test [1], the system named is Escherichia coli K-12 ML 1629. Put plainly: MIC, standard serial dilution on nutrient agar. It is filed as cell-based. The conditions noted are these: K12ML1629, 37° C., 18 hours.
Another test has as its system Erwinia 7-22. Put plainly: MIC, standard serial dilution on nutrient agar. It is filed as cell-based. The conditions noted are these: 722, 37° C., 18 hours.
In test [2] the test system is Staphylococcus aureus MS 9883. The test can be described thus: MIC, standard serial dilution on nutrient agar. It is filed as cell-based.
The subject of another test is Serratia CAT. The test can be described thus: MIC, standard serial dilution on nutrient agar. It is filed as cell-based.
The subject of test [3] is Pseudomonas aeruginosa A3. Put plainly: MIC, standard serial dilution on nutrient agar. It is filed as cell-based.
Experimental: (§1) The minimum inhibitory concentrations (mcg/ml) of the new compounds of this invention against various microorganisms were determined according to a standard serial dilution method using nutrient agar incubation medium at 37° C., the estimation being made after 18 hours incubation.
Test [4] relates to Staphylococcus aureus APOI. The test can be described thus: MIC, standard serial dilution on nutrient agar. It is filed as cell-based. Particulars: Staphylococcus aureus, 18 h.
Experimental: as §1
A further test has as its system Proteus vulgaris BAC. The test can be described thus: MIC, standard serial dilution on nutrient agar. It is filed as cell-based.
The test system of a further test is Enterobacter 666. The test can be described thus: MIC, standard serial dilution on nutrient agar. It is filed as cell-based. The conditions noted are these: 37° C., 18 hours.
The test system of another test is Proteus rettgeri AUB. The test can be described thus: MIC, standard serial dilution on nutrient agar. The conditions noted are these: Providencia rettgeri. It is filed as cell-based.
In test [5] the test system is Klebsiella pneumoniae 22 #3038. Put plainly: MIC, standard serial dilution on nutrient agar. It is filed as cell-based.
The next test has as its system Pyocyanique. Put plainly: MIC, standard serial dilution on nutrient agar. It is filed as cell-based. The conditions noted are these: 18 h.
The test system of test [6] is Staphylococcus epidermides 109. The test can be described thus: MIC, standard serial dilution on nutrient agar. It is filed as cell-based.
Experimental: as §1
The test system of a further test is Enterobacter HAU. Put plainly: MIC, standard serial dilution on nutrient agar. The conditions noted are these: Enterobacter, 18 h. It is filed as cell-based.
A further test concerns Klebsiella THO. The test can be described thus: MIC, standard serial dilution on nutrient agar. It is filed as cell-based.
In a further test the test system is Providencia 19. Put plainly: MIC, standard serial dilution on nutrient agar. It is filed as cell-based. Particulars: Providencia, 19, 18 h.
The next test relates to Serratia BOT. The test can be described thus: MIC, standard serial dilution on nutrient agar. It is filed as cell-based.
For another test, the system named is Klebsiella BRIA. The test can be described thus: MIC, standard serial dilution on nutrient agar. It is filed as cell-based.
For the next test, the system named is Escherichia coli K-12. Put plainly: MIC, standard serial dilution on nutrient agar. It is filed as cell-based. The conditions noted are these: K12, 37° C., 18 hours.
The test system of a further test is Klebsiella HOU. The test can be described thus: MIC, standard serial dilution on nutrient agar. It is filed as cell-based.
Test [7] relates to Staphylococcus aureus 209P. Put plainly: MIC, standard serial dilution on nutrient agar. It is filed as cell-based.
Experimental: as §1
The subject of test [8] is Staphylococcus aureus MS 9610. Put plainly: MIC, standard serial dilution on nutrient agar. It is filed as cell-based.
Another test deals with Serratia 7. Put plainly: MIC, standard serial dilution on nutrient agar. The conditions noted are these: Serratia, 7, 18 h. It is filed as cell-based.
Another test relates to Providencia ZAO. The test can be described thus: MIC, standard serial dilution on nutrient agar. It is filed as cell-based.
Setting [9] is: Pseudomonas aeruginosa, A3, 18 h.
The mark [10] stands for this setting: Staphylococcus aureus, 209P, 18 h.
[11] abbreviates: Staphylococcus aureus, MS9610, 18 h.
Where [12] appears, read: MS9883, Staphylococcus aureus MS 9883, nutrient agar, 37° C., 18 hours, read-out: MIC.
Setting [13] is: Klebsiella BRIA, nutrient agar, 37° C., 18 hours, read-out: MIC.

Experimental for Enterobacter 666: as §1
Experimental for Enterobacter HAU: as §1
Experimental for Erwinia 7-22: as §1
Experimental for Klebsiella BRIA: as §1
Experimental for Klebsiella HOU: as §1
Experimental for Klebsiella THO: as §1
Experimental for Proteus rettgeri AUB: as §1
Experimental for Proteus vulgaris BAC: as §1
Experimental for Providencia 19: as §1
Experimental for Providencia Pv 37: as §1
Experimental for Providencia ZAO: as §1
Experimental for Pyocyanique: as §1
Experimental for Sarcina lutea PCI 1001: as §1
Experimental for Serratia 7: as §1
Experimental for Serratia BOT: as §1
Experimental for Serratia CAT: as §1

On to “1-N-((S)-2-hydroxy-4-aminobutyryl)-5-O-β-D-xylofuranosyl- or ribofuranosyl-neamine [butirosins]”, for which, in the test on resistant bacteria, the “activity against resistant bacteria” value was “active against some kanamycin- and ribostamycin-resistant bacteria”.

For the molecule `NCC1OC(OC2C(N)CC(N)C(OC3OC(CO)C(O)C(N)C3O)C2O)C(O)C(O)C1O` (centres unmarked) [Kanamycin A], the MIC is above 100 µg/mL with Providencia Pv 37; 12.5 µg/mL (≈ 25.8 µM) in the test on Sarcina lutea PCI 1001; above 100 µg/mL in [1]; above 100 µg/mL against Erwinia 7-22; 6.25 µg/mL (≈ 12.9 µM) in test [2] (Staphylococcus aureus, MS9883, 18 h); above 100 µg/mL against Serratia CAT (Serratia, 18 h). Further, the MIC was 25 µg/mL (≈ 51.6 µM) in test [3] (setting [9]); 12.5 µg/mL (≈ 25.8 µM) in test [4]; above 100 µg/mL against Proteus vulgaris BAC (Proteus vulgaris, 18 h); above 100 µg/mL with Enterobacter 666; above 100 µg/mL with Proteus rettgeri AUB (18 h); above 100 µg/mL in test [5] (Klebsiella pneumoniae, 18 h). Further, the minimum inhibitory concentration (MIC) was 50 µg/mL (≈ 103 µM) against Pyocyanique; 25 µg/mL (≈ 51.6 µM) in test [6] (Staphylococcus, 109, 18 h); above 100 µg/mL in the test on Enterobacter HAU; above 100 µg/mL against Klebsiella THO (Klebsiella, 18 h); above 100 µg/mL in the test on Providencia 19; 6.25 µg/mL (≈ 12.9 µM) against Serratia BOT (Serratia, 18 h). For the same molecule, the MIC in the test on Klebsiella BRIA (Klebsiella, 18 h) was above 100 µg/mL; in the test on Escherichia coli K-12, 3.12 µg/mL (≈ 6.44 µM); in the test with Klebsiella HOU (Klebsiella, 18 h) it was above 100 µg/mL; in test [7] (setting [10]), 3.12 µg/mL (≈ 6.44 µM); in test [8] (setting [11]), 6.25 µg/mL (≈ 12.9 µM); with Serratia 7, above 100 µg/mL. In the test on Providencia ZAO (Providencia, 18 h), this molecule displayed a minimum inhibitory concentration (MIC) above 100 µg/mL.

As for `NCC1CCC(O)C(OC2C(N)CC(NC(=O)C(O)CN)C(OC3OC(CO)C(O)C(N)C3O)C2O)O1` (racemic) [Compound No. 3, 1-N-(DL-2-hydroxy-3-aminopropionyl)-3',4'-dideoxykanamycin A], the MIC came out at 6.25 µg/mL (≈ 11.6 µM) in the test on Providencia Pv 37; 6.25 µg/mL (≈ 11.6 µM) against Sarcina lutea PCI 1001; 1.56 µg/mL (≈ 2.89 µM) in [1]; 1.56 µg/mL (≈ 2.89 µM) against Erwinia 7-22; 3.12 µg/mL (≈ 5.78 µM) in test [2] (setting [12]); 12.5 µg/mL (≈ 23.2 µM) in the test on Serratia CAT (Serratia CAT, nutrient agar, 37° C., 18 hours, read-out: MIC.). The MIC in test [3] (Pseudomonas aeruginosa A3, nutrient agar, 37° C., 18 hours, read-out: MIC.) amounted to 3.12 µg/mL (≈ 5.78 µM); in test [4] it was 1.56 µg/mL (≈ 2.89 µM); in the test with Proteus vulgaris BAC (Proteus vulgaris BAC, nutrient agar, 37° C., 18 hours, read-out: MIC.), 3.12 µg/mL (≈ 5.78 µM); against Enterobacter 666, 1.56 µg/mL (≈ 2.89 µM); against Proteus rettgeri AUB (18 h), 6.25 µg/mL (≈ 11.6 µM); in test [5] (Klebsiella pneumoniae 22 #3038, nutrient agar, 37° C., 18 hours, read-out: MIC.), 3.12 µg/mL (≈ 5.78 µM). Moreover, the minimal inhibitory concentration (MIC) came out at 50 µg/mL (≈ 92.7 µM) in the test with Pyocyanique; 3.12 µg/mL (≈ 5.78 µM) in [6] (Staphylococcus epidermides 109, nutrient agar, 37° C., 18 hours, read-out: MIC.); 25 µg/mL (≈ 46.3 µM) with Enterobacter HAU; 1.56 µg/mL (≈ 2.89 µM) in the test with Klebsiella THO (Klebsiella, 18 h); 6.25 µg/mL (≈ 11.6 µM) against Providencia 19; 12.5 µg/mL (≈ 23.2 µM) with Serratia BOT (Serratia BOT, nutrient agar, 37° C., 18 hours, read-out: MIC.). For the same molecule, the MIC in the test with Klebsiella BRIA (setting [13]) was found to be 3.12 µg/mL (≈ 5.78 µM); in the test with Escherichia coli K-12 it was 1.56 µg/mL (≈ 2.89 µM); in the test on Klebsiella HOU (Klebsiella HOU, nutrient agar, 37° C., 18 hours, read-out: MIC.) it was 3.12 µg/mL (≈ 5.78 µM); in test [7] (Staphylococcus aureus 209P, nutrient agar, 37° C., 18 hours, read-out: MIC.) it was 3.12 µg/mL (≈ 5.78 µM); in test [8] (MS9610, Staphylococcus aureus MS 9610, nutrient agar, 37° C., 18 hours, read-out: MIC.), 3.12 µg/mL (≈ 5.78 µM); in the test with Serratia 7, 6.25 µg/mL (≈ 11.6 µM). In addition, the MIC with Providencia ZAO (Providencia ZAO, nutrient agar, 37° C., 18 hours, read-out: MIC.) was 12.5 µg/mL (≈ 23.2 µM).

In the case of `NCC[C@H](O)C(=O)N[C@@H]1C[C@H](N)[C@@H](O[C@H]2O[C@H](CN)[C@@H](O)[C@H](O)[C@H]2O)[C@H](O)[C@H]1O[C@H]1O[C@H](CO)[C@@H](O)[C@H](N)[C@H]1O` [Amikacin, 1-N-((S)-2-hydroxy-4-aminobutyryl)-kanamycin A], the MIC against Providencia Pv 37 worked out at 12.5 µg/mL (≈ 21.3 µM); against Sarcina lutea PCI 1001, 3.12 µg/mL (≈ 5.33 µM); in test [1] it was 1.56 µg/mL (≈ 2.66 µM); against Erwinia 7-22 it was 1.56 µg/mL (≈ 2.66 µM); in [2] (setting [12]), 6.25 µg/mL (≈ 10.7 µM); in the test with Serratia CAT (Serratia, 18 h), 12.5 µg/mL (≈ 21.3 µM). Further, the MIC worked out at 1.56 µg/mL (≈ 2.66 µM) in test [3] (setting [9]); 1.56 µg/mL (≈ 2.66 µM) in [4]; 3.12 µg/mL (≈ 5.33 µM) in the test with Proteus vulgaris BAC (Proteus vulgaris, 18 h); 1.56 µg/mL (≈ 2.66 µM) against Enterobacter 666; 6.25 µg/mL (≈ 10.7 µM) in the test on Proteus rettgeri AUB (Proteus rettgeri AUB, nutrient agar, 37° C., 18 hours, read-out: MIC.); 3.12 µg/mL (≈ 5.33 µM) in test [5] (Klebsiella pneumoniae, 18 h). For the same molecule, the MIC in the test on Pyocyanique was found to be 50 µg/mL (≈ 85.4 µM); in test [6] (Staphylococcus, 109, 18 h), 3.12 µg/mL (≈ 5.33 µM); in the test on Enterobacter HAU it was 50 µg/mL (≈ 85.4 µM); with Klebsiella THO (Klebsiella THO, nutrient agar, 37° C., 18 hours, read-out: MIC.), 6.25 µg/mL (≈ 10.7 µM); against Providencia 19, 12.5 µg/mL (≈ 21.3 µM); against Serratia BOT (Serratia, 18 h), 12.5 µg/mL (≈ 21.3 µM). Moreover, the MIC was 6.25 µg/mL (≈ 10.7 µM) in the test on Klebsiella BRIA (setting [13]); 1.56 µg/mL (≈ 2.66 µM) with Escherichia coli K-12; 12.5 µg/mL (≈ 21.3 µM) against Klebsiella HOU (Klebsiella, 18 h); 3.12 µg/mL (≈ 5.33 µM) in test [7] (setting [10]); 3.12 µg/mL (≈ 5.33 µM) in [8] (setting [11]); 12.5 µg/mL (≈ 21.3 µM) against Serratia 7. This molecule came in with an MIC with Providencia ZAO (Providencia, 18 h) of 12.5 µg/mL (≈ 21.3 µM). Besides, the “activity against resistant bacteria” value in the test with resistant bacteria was “cannot be inactivated by the kanamycin-resistant bacteria”.

These data come from patent US4298727A, “3',4'-Dideoxykanamycin A and 1-N-(S)-α-hydroxy-ω-aminoalkanoyl) derivatives thereof” (Zaidan Hojin Biseibutsu Kagaku KenkyuKai, priority 1979, dated 1981).
